Results as given in the CheMixHub viscosity set.
± gives the uncertainty stated by the source.

Assay: xn = mol fraction of the nth substance listed

CC(C)CO + CCCCO
101 kPa
Conditions	viscosity [mPa·s]
293.15 K, x2 = 0.2	3.68 ± 0.036
293.15 K, x2 = 0.4	3.434 ± 0.034
293.15 K, x2 = 0.6	3.243 ± 0.032
293.15 K, x2 = 0.8	3.078 ± 0.03
298.15 K, x2 = 0.0982	3.238 ± 0.043
298.15 K, x2 = 0.2007	3.111 ± 0.042
298.15 K, x2 = 0.301	3.016 ± 0.04
298.15 K, x2 = 0.4046	2.935 ± 0.039
298.15 K, x2 = 0.5026	2.859 ± 0.038
298.15 K, x2 = 0.6261	2.772 ± 0.037
298.15 K, x2 = 0.7024	2.726 ± 0.036
298.15 K, x2 = 0.8001	2.672 ± 0.035
298.15 K, x2 = 0.9178	2.608 ± 0.034
313.15 K, x2 = 0.2	2.022 ± 0.022
313.15 K, x2 = 0.4	1.937 ± 0.021
313.15 K, x2 = 0.6	1.872 ± 0.02
313.15 K, x2 = 0.8	1.818 ± 0.019

CCCC=O + CCCCO
viscosity [mPa·s], 100 kPa
Conditions	294.53 K	294.63 K	319.13 K	320.13 K
x2 = 0.59	–	5.78 ± 0.066	2.552 ± 0.03	–
x2 = 0.9	5.49 ± 0.062	–	–	2.98 ± 0.034

CCCCCC + CCCCO
viscosity [mPa·s]
Conditions	298.15 K	313.15 K	318.15 K
101 kPa, x2 = 0.08	0.33 ± 0.009	–	0.266 ± 0.007
101 kPa, x2 = 0.1284	0.345 ± 0.009	–	0.284 ± 0.008
101 kPa, x2 = 0.1441	0.35 ± 0.009	–	0.29 ± 0.008
101 kPa, x2 = 0.2	0.385 ± 0.01	–	0.311 ± 0.008
101 kPa, x2 = 0.28	0.415 ± 0.011	–	0.33 ± 0.009
101.3 kPa, x2 = 0.0999	0.3222 ± 0.0036	0.2741 ± 0.0032	–
101.3 kPa, x2 = 0.1997	0.3628 ± 0.0039	0.306 ± 0.0035	–
101.3 kPa, x2 = 0.299	0.4227 ± 0.0044	0.3503 ± 0.0038	–
101.3 kPa, x2 = 0.4007	0.5201 ± 0.0052	0.4169 ± 0.0043	–
101.3 kPa, x2 = 0.499	0.642 ± 0.0062	0.5063 ± 0.0051	–
101.3 kPa, x2 = 0.5988	0.8264 ± 0.0077	0.6311 ± 0.0061	–
101.3 kPa, x2 = 0.6996	1.082 ± 0.0097	0.8166 ± 0.0077	–
101.3 kPa, x2 = 0.8	1.421 ± 0.013	1.041 ± 0.0097	–
101.3 kPa, x2 = 0.8994	1.888 ± 0.016	1.33 ± 0.013	–
101.33 kPa, x1 = 0.0971	1.848 ± 0.015	–	–
101.33 kPa, x1 = 0.1707	1.496 ± 0.012	–	–
101.33 kPa, x1 = 0.2625	1.169 ± 0.01	–	–
101.33 kPa, x1 = 0.3521	0.909 ± 0.008	–	–
101.33 kPa, x1 = 0.4142	0.778 ± 0.007	–	–
101.33 kPa, x1 = 0.562	0.539 ± 0.005	–	–
101.33 kPa, x1 = 0.6624	0.44 ± 0.004	–	–
101.33 kPa, x1 = 0.8147	0.348 ± 0.004	–	–
101.33 kPa, x1 = 0.9267	0.306 ± 0.003	–	–

CCCCCOC(C)=O + CCCCO
viscosity [mPa·s], 101.33 kPa
Conditions	x1 = 0.1138	x1 = 0.2047	x1 = 0.3089	x1 = 0.4008	x1 = 0.5	x1 = 0.6103	x1 = 0.7064	x1 = 0.8088	x1 = 0.9025
293.15 K	2.52 ± 0.28	2.275 ± 0.26	2.024 ± 0.24	1.825 ± 0.23	1.633 ± 0.21	1.443 ± 0.2	1.295 ± 0.18	1.154 ± 0.17	1.039 ± 0.16
303.15 K	2.02 ± 0.24	1.838 ± 0.23	1.649 ± 0.21	1.499 ± 0.2	1.353 ± 0.19	1.206 ± 0.18	1.092 ± 0.17	0.982 ± 0.16	0.891 ± 0.15
313.15 K	1.515 ± 0.2	1.395 ± 0.19	1.269 ± 0.18	1.167 ± 0.17	1.066 ± 0.17	0.964 ± 0.16	0.883 ± 0.15	0.805 ± 0.14	0.739 ± 0.14
323.15 K	1.009 ± 0.16	0.948 ± 0.16	0.883 ± 0.15	0.83 ± 0.15	0.776 ± 0.14	0.72 ± 0.14	0.674 ± 0.13	0.629 ± 0.13	0.59 ± 0.13

CCCCCOC(C)=O + CCCCOC(C)=O
298.15 K, 101.33 kPa
Conditions	viscosity [mPa·s]
x2 = 0.1116	0.834 ± 0.007
x2 = 0.2559	0.81 ± 0.007
x2 = 0.3941	0.787 ± 0.006
x2 = 0.5285	0.76 ± 0.006
x2 = 0.6578	0.738 ± 0.006
x2 = 0.7859	0.715 ± 0.006
x2 = 0.9088	0.694 ± 0.006

C=CC(=O)OC + CCCCn1cc[n+](C)c1.F[B-](F)(F)F
303.15 K, 101 kPa
Conditions	viscosity [mPa·s]
x2 = 0.5005	16.06 ± 0.35
x2 = 0.9242	63.95 ± 1.4
